{"source": "patent US8227207B2", "about": "“Bioactive peptides derived from the proteins of egg white by means of enzymatic hydrolysis” (Consejo Superior de Investigaciones Cientifcas, priority 2004, dated 2012)", "key": {"[1]": {"assay": "Antioxidant activity, ABTS radical cation decolorization assay (TEAC)", "text": "In order to measure the antioxidant activity, the method developed by R. Re, N. Pellegrini, A. Proteggente, A. Pannala, M. Yang and C. Rice-Evans (Antioxidant activity applying an improved ABTS radical cation decolorization assay, Free Radical Biological Medicine, 1999, 26: 1231-1237) is used. The method is based on the disappearance of the radical ABTS^•+ (2,2-azinobis(3-ethylbenzothiazoline-6-sulphonic) acid) owing to the reducing action of different samples with antioxidant activity. […] The antioxidant activity is detected by the fall in the 734 nm absorbency time.\nIn order to generate the radical […], the compound ABTS (Sigma), dissolved in water at a concentration of 7 mM, is brought into contact with 2.45 mM potassium persulphate in a ratio of 1:2 for 24 hours in the absence of light. After 24 hours, the absorbency at 734 nm is adjusted to a value of 0.70 ±0.02 with 5 mM of phosphate buffer salt (PBS), 138 mM of NaCl, pH =7.4. In a standard experiment, 1 ml of this solution is added to 10 μl of the sample (1.5 mM) dissolved in 0.02 M sodium phosphate buffer, pH =6.5 The experiment is conducted in triplicate, with each sample being incubated with the radical ABTS^•+ for 10 minutes at 37° C., with readings of the absorbency at 734 nm being taken at 1, 6 and 10 minutes. Used as blank is 0.02 M sodium phosphate buffer, pH =6.5 and at the same time as the incubation of the samples is carried out, the radical […] is incubated without any antioxidant agent (control). The antioxidant activity of each sample is calculated with respect to the absorbency at 734 nm shown by the control. The antioxidant activity of the sample is expressed in relation to the antioxidant activity of TROLOX® (6-hydroxy-2,5,7,8-tetramethylchroman-2-carboxylic acid) (Sigma), analogous to vitamin E, by means of a TEAC value (Trolox equivalent antioxidant capacity) at a certain time.\nDifferent ways of calculating the TEAC value have been developed. We use the method described by F. W. P. C. van Overlveld, G. R. M. M. Haenen, J. Rhemrev, J. P. W. Vermeiden and A. Bast (Tyrosine as important contributor to the antioxidant capacity of seminal plasma, Chemical and Biological Interactions, 2000, 127: 151-161), which is valid for calculating the TEAC value of a pure compound, which provokes a decrease in the absorbency which linearly increases as the concentration is increased. In this case, it would only be necessary to calculate a certain concentration of a compound in order to be able to calculate its TEAC value.\nThe value 0.2845 represents the decrease in absorbency caused by 1 mM of 6-hydroxy-2,5,7,8-tetramethylchroman-2-carboxylic acid."}, "Wistar-Kyoto rats (WKY)": {"system": "Wistar-Kyoto rats (WKY)", "assay": "Systolic arterial pressure (tail cuff) in normotense Wistar-Kyoto rats", "format": "in vivo, rat", "settings": "highest dose used, intragastric probe", "experimental": "(§1) The effect is studied of various identified peptides and of some products containing them (for example egg white hydrolysed with pepsin for 3 hours and the fraction of it less than 3000 Da) on the arterial pressure of spontaneously hypertensive rats (SHR) and Wistar-Kyoto rats (WKY) which are the normotense controls for the SHR.\n(§2) This study is conducted with SHR (10) and WKY of 17-24 weeks old and weight between 300 and 350 g, coming from Charles River Laboratories España, S. A. The rats are kept in cages of five by five and maintained at a stable temperature of 25° C. with light-dark cycles of 12 hours, ingesting freely available water and food. In order to carry out the measurement of systolic arterial pressure (SAP) “tail cuff” equipment is used (Le5001, Letica) which automatically provides a digital value of the SAP and records and facilitates the cardiac frequency of the animals. Various measurements are made and the average of all of them is obtained in order to achieve a reliable value of the SAP. Before positioning the cuff and transducer in the tail of the rats, the rats are exposed to a temperature of close to 30° C. in order to facilitate dilation of the caudal artery. Also, in order to ensure the reliability of the measurement, the animals are made to get used to the procedure for two weeks prior to conducting each assay in question.\n(§3) The administration of the products to be assayed is done by means of an intragastric probe in a time margin of between 9 and 10 o'clock in the morning. The SHR used for the study had SAP values of between 230 and 280 mm Hg. The WKY used for the study at that moment had SAP values of between 160 and 200 mm Hg. Measurements of the SAP were taken from the animals periodically, every 2 hours, up to 8 hours post-administration of the products to be assayed; in addition, a SAP measurement was taken 24 hours after the administration of those products. As negative control (in order to establish the circadian variation of the SAP in probed rats) the measurements of the SAP obtained in rats which had been administered 1 ml of water by means of intragastric probe were used. As positive control, the measurements of the SAP obtained in rats which had been administered 50 mg/kg of Captopril (prototype ACEI drug) by means of intragastric probe were used. This dose of Captopril was administered to each rat in a volume of 1 ml. In order to establish the effect of the unhydrolysed egg white on the arterial pressure of the animals, similar assays to those described above were conducted, in which the animals were treated by the same procedure with 200 mg/kg of previously freeze-dried egg white (reference).\nThe results obtained are grouped and the mean±the standard error of measurement (SEM) is obtained for a minimum of 9 homogenous assays. […]"}, "[2]": {"system": "spontaneously hypertensive rats (SHR)", "assay": "Antihypertensive activity: systolic arterial pressure (tail cuff) in spontaneously hypertensive rats", "format": "in vivo, rat", "experimental": "as §1, §2, §3\nThe results obtained are grouped and the mean±the standard error of measurement (SEM) is obtained for a minimum of 9 homogenous assays. The data of the treated animals are always compared with the data deemed to be a negative control. In order to compare them and obtain the statistical significance, Student's t-test for unpaired data is used and the difference for values of p<0.05 is considered significant."}}, "note": "“Also recorded” adds a separate entry of the source. Residues, ends and D or L forms follow the SMILES beside them.", "data": [{"smiles": "CC[C@H](C)[C@H](NC(=O)[C@@H]1CCCN1C(=O)[C@H](Cc1ccc(O)cc1)NC(=O)[C@H](CCCNC(=N)N)NC(=O)[C@H](CCC(=O)O)NC(=O)[C@H](CCC(=O)O)NC(=O)[C@H](C)NC(=O)[C@@H](N)Cc1ccc(O)cc1)C(=O)N[C@@H](CC(C)C)C(=O)O", "note": "[SEQ. ID. N^o 6] (H-YAEERYPIL-OH; N-terminus and C-terminus assumed)", "values": [{"measurement": "antioxidant activity towards free radicals (in words)", "setting": "[1]", "result": "possesses antioxidant activity"}, {"measurement": "times more antioxidant activity than 6-hydroxy-2,5,7,8-tetramethylchroman-2-carboxylic acid", "setting": "[1]; 1 mg versus 1 mg", "result": 1.3, "unit": "times"}, {"measurement": "TEAC (Trolox equivalent antioxidant capacity)", "setting": "[1]; 1 minute", "result": 0.8}, {"measurement": "TEAC (Trolox equivalent antioxidant capacity)", "setting": "[1]; 6 minutes", "result": 1.2}, {"measurement": "TEAC (Trolox equivalent antioxidant capacity)", "setting": "[1]; 10 minutes", "result": 1.3}, {"measurement": "change in SAP in normotense rats (in words)", "setting": "Wistar-Kyoto rats (WKY)", "result": "not in normotensed Wistar-Kyoto rats; also recorded: none of these compounds modifies the SAP"}, {"measurement": "time of maximum drop in SAP after administration", "setting": "[2]; intragastric probe", "result": 6, "unit": "h"}, {"measurement": "drop in systolic arterial pressure (SAP) / anti-hypertensive activity (in words)", "setting": "[2]; single administration by intragastric probe", "result": "possess anti-hypertensive activity; also recorded: significant dose-dependent drop in the SAP; also recorded: clear and pronounced anti-hypertensive effect; also recorded: display anti-hypertensive activity"}]}]}
